Results reported in patent publication US20260250257A1, “ANTIBACTERIAL AND SYNERGISTIC ACTIVE COMPOUND AND USE THEREOF” (EAST CHINA UNIVERSITY OF SCIENCE AND TECHNOLOGY, priority 2023, published 2026).
In brackets after ≈: the same amount, converted by molar mass.

Assays:
Assay type in all cases: cell-based
[1] = tested on: ATCC9027 strain (Pseudomonas aeruginosa); experiment: Broth microdilution, antibacterial activity of the compound used alone; conditions: for MIC: read-out: Antibacterial activity of the compound of Formula I, ATCC9027
Excerpt: (§1) The broth microdilution method was used to test the antibacterial effects of the compounds of the present invention against various Gram-negative bacterial strains when used alone.

[2] = tested on: ATCC13883 strain (Klebsiella pneumoniae); experiment: as above; conditions: for MIC: read-out: Antibacterial activity of the compound of Formula I, ATCC13883
Excerpt: as §1

[3] = tested on: ATCC19606 strain (Acinetobacter baumannii); experiment: as above; conditions: for MIC: read-out: Antibacterial activity of the compound of Formula I, ATCC19606
Excerpt: as §1

[4] = tested on: ATCC25922 strain (Escherichia coli); experiment: as above; conditions: for MIC: read-out: Antibacterial activity of the compound of Formula I, ATCC25922
Excerpt: as §1

[5] = tested on: ATCC9027 strain (Pseudomonas aeruginosa); experiment: Checkerboard antibacterial synergistic activity test with polymyxin E (FIC); set-up: key: FIC≤0.5 synergy; 0.5–1 additive; 1–2 indifferent; ≥2 antagonism; conditions: combined with polymyxin E
How it was run: (§2)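 Interaction is reported as the fractional inhibitory concentration, read after 16 h of growth at 37° C. in Mueller-Hinton broth. Each well paired one level of polymyxin E (prepared at 16 to 0.015 μg/ml) with one of the test agent (prepared at 256 to 4 μg/ml) before bacteria were added.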

[6] = tested on: ATCC13883 strain (Klebsiella pneumoniae); experiment: as above; set-up: key: FIC≤0.5 synergy; 0.5–1 additive; 1–2 indifferent; ≥2 antagonism; conditions: combined with polymyxin E
How it was run: as §2

[7] = tested on: ATCC19606 strain (Acinetobacter baumannii); experiment: as above; set-up: key: FIC≤0.5 synergy; 0.5–1 additive; 1–2 indifferent; ≥2 antagonism; conditions: combined with polymyxin E
How it was run: as §2

[8] = tested on: ATCC25922 strain (Escherichia coli); experiment: as above; set-up: key: FIC≤0.5 synergy; 0.5–1 additive; 1–2 indifferent; ≥2 antagonism; conditions: combined with polymyxin E
How it was run: as §2

| SMILES | Antibacterial activity of the compound of Formula I, ATCC9027 [1] | Antibacterial activity of the compound of Formula I, ATCC13883 [2] | Antibacterial activity of the compound of Formula I, ATCC19606 [3] | Antibacterial activity of the compound of Formula I, ATCC25922 [4] | Synergistic activity (FIC value) ATCC9027 [5] | Synergistic activity (FIC value) ATCC13883 [6] | Synergistic activity (FIC value) ATCC19606 [7] | Synergistic activity (FIC value) ATCC25922 [8] | MIC [1] | MIC [2] | MIC [3] | MIC [4] |
| --- | --- | --- | --- | --- | --- | --- | --- | --- | --- | --- | --- | --- |
| NC(N)=Nc1nc(-c2ccc(F)cc2Oc2ccc(Cl)cc2Cl)c(Cl)s1 [Compound I-90] | 256 µg/mL | 256 µg/mL | 256 µg/mL | 256 µg/mL | 0.18 | 0.13 | 0.03 | 0.15 |  |  |  |  |
| Clc1ccc(Oc2ccccc2-c2c[nH]c(N=C3NCCCN3)n2)c(Cl)c1 [Compound I-146] | 256 µg/mL | 256 µg/mL | 256 µg/mL | 256 µg/mL | 0.06 | 0.09 | 0.31 | 0.14 |  |  |  |  |
| NC(N)=Nc1nc(-c2cccc(NC(=O)c3ccccc3)c2)cs1 [Compound I-109] |  |  |  |  | 1.25 | 1.25 | 1.25 | 0.27 | 256 µg/mL (≈ 759 µM) | 256 µg/mL (≈ 759 µM) | 256 µg/mL (≈ 759 µM) | 256 µg/mL (≈ 759 µM) |
| N#Cc1cccc(-c2csc(N=C(N)N)n2)c1 [Compound I-21] | 64 µg/mL | 128 µg/mL | 256 µg/mL | 128 µg/mL | 1.25 | 0.52 | 0.52 | 0.63 |  |  |  |  |
| NC(N)=Nc1nc(-c2cc(I)cc(I)c2)c[se]1 [Compound I-34] | 256 µg/mL | 256 µg/mL | 256 µg/mL | 256 µg/mL | 1.25 | 1.25 | 0.75 | 1.25 |  |  |  |  |
| NC(N)=Nc1nc(-c2cccc(Oc3ccccn3)c2)cs1 [Compound I-104] |  |  |  |  | 0.52 | 1.25 | 0.25 | 1.25 | 256 µg/mL (≈ 822 µM) | 256 µg/mL (≈ 822 µM) | 256 µg/mL (≈ 822 µM) | 256 µg/mL (≈ 822 µM) |
| FC(F)(F)c1ccc(-c2cccs2)c(-c2c[nH]c(N=C3NCCCN3)n2)c1 [Compound I-140] | 256 µg/mL | 256 µg/mL | 256 µg/mL | 256 µg/mL | 0.52 | 1.25 | 0.51 | 1.25 |  |  |  |  |
| Cc1ccccc1Oc1ccccc1-c1csc(N=C(N)N)n1 [Compound I-81] | 256 µg/mL | 256 µg/mL | 256 µg/mL | 256 µg/mL | 0.06 | 0.09 | 0.31 | 0.14 |  |  |  |  |
| CSc1cc2cccc(C)n2c1-c1csc(N=C2NCCCN2)n1 [Compound I-194] | 64 µg/mL | 128 µg/mL | 256 µg/mL | 128 µg/mL | 0.63 | 1.25 | 1.25 | 0.5 |  |  |  |  |
| O=C(NC1CC1)c1ccc(-c2nccs2)c(-c2nc(N=C3NCCCN3)sc2Br)c1 [Compound I-141] | 256 µg/mL | 256 µg/mL | 256 µg/mL | 256 µg/mL | 0.52 | 1.25 | 0.51 | 1.25 |  |  |  |  |
| CS(=O)(=O)c1ccc(Oc2ccccc2Cl)cc1-c1nc(N=C2NCCCN2)sc1Cl [Compound I-155] | 64 µg/mL | 128 µg/mL | 256 µg/mL | 128 µg/mL | 0.28 | 0.16 | 0.03 | 0.18 |  |  |  |  |
| Clc1ccc(Oc2ccccc2)c(-c2coc(N=C3NCCCN3)n2)c1 [Compound I-134] | 256 µg/mL | 256 µg/mL | 256 µg/mL | 256 µg/mL | 0.52 | 0.53 | 1.25 | 1.25 |  |  |  |  |
| Cc1c(-c2coc(N=C3NCCCN3)n2)ccc(Cl)c1C#N [Compound I-169] | 256 µg/mL | 256 µg/mL | 256 µg/mL | 256 µg/mL | 0.62 | 0.33 | 0.15 | 0.39 |  |  |  |  |
| CC(C)c1ccc(-c2c[nH]c(N=C3NCCCN3)n2)cc1 [Compound I-166] | 256 µg/mL | 256 µg/mL | 256 µg/mL | 256 µg/mL | 1.25 | 1.25 | 1.25 | 0.5 |  |  |  |  |
| CNS(=O)(=O)c1cc(-c2c[se]c(N=C3NCCCN3)n2)ccc1C [Compound I-171] | 256 µg/mL | 256 µg/mL | 256 µg/mL | 256 µg/mL | 0.56 | 0.63 | 0.75 | 0.5 |  |  |  |  |
| Cc1ccc(Sc2ccccc2-c2coc(N=C(N)N)n2)c(C)c1 [Compound I-108] | 256 µg/mL | 256 µg/mL | 256 µg/mL | 256 µg/mL | 0.28 | 0.16 | 0.03 | 0.18 |  |  |  |  |
| Clc1sc(N=C2NCCCN2)nc1-c1cccc(Br)c1 [Compound I-175] | 256 µg/mL | 256 µg/mL | 256 µg/mL | 256 µg/mL | 1.25 | 1.25 | 0.5 | 1.25 |  |  |  |  |
| CNC(=O)c1ccc(-c2ccncn2)c(-c2csc(N=C3NCCCN3)n2)c1 [Compound I-138] | 256 µg/mL | 256 µg/mL | 256 µg/mL | 256 µg/mL | 1.25 | 1.25 | 1.25 | 1.25 |  |  |  |  |
